From patent publication US20240360109A1 (SHANGHAI HANSOH BIOMEDICAL CO., LTD., priority 2021, published 2024) come the findings set out here.

What is called EC50 is the concentration at which the effect is half-maximal. What is called AUC(0-inf) is the area under the concentration-time curve extrapolated to infinity. Read a low AUC(0-inf) as less exposure. What is called AUC(0-t) is the area under the concentration-time curve up to a stated or last time point. Read a high AUC(0-t) as more exposure. Usually Cmax stands for the peak of the concentration-time curve. The Tmax is the time from dosing to the highest level. Broadly, the half-life is the time in which the quantity being followed falls by half.

In one data set the target is T1, human GLP-1 receptor (Homo sapiens, UniProt P43220).
T1 construct: expressed in transfected cells
T1 sequence (P43220 24-463): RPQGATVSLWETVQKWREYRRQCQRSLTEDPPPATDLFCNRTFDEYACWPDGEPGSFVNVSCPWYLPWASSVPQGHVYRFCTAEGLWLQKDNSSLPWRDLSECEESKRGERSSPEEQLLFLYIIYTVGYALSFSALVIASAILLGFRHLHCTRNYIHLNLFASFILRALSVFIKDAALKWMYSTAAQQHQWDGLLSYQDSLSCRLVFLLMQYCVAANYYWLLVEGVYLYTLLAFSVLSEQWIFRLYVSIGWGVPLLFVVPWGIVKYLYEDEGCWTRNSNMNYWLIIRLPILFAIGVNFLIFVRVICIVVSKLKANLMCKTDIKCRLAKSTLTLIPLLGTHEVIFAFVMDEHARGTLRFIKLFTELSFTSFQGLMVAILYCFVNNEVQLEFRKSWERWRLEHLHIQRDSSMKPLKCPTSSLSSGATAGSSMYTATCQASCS
Put plainly: Stimulation of human GLP1 receptor stable transgenic cell line CHO-K1/GLP-1R/CRE-luc to produce cAMP (HTRF). Type of data set: cell-based. Particulars: cAMP production, CHO-K1/GLP-1R/CRE-luc cells, 30 minutes incubation, 0.5 mM IBMX. From the text:
I. Determination of the Ability of the Compound of the Present Invention to Stimulate Human GLP1 Receptor Stable Transgenic Cell Lines to Produce cAMP
The purpose of this test example is to determine the ability of the compound to activate the human GLP-1 receptor on the cell surface. The EC50 that stimulates […] after agonism characterizes the compound's ability to activate the human GLP-1 receptor.
The frozen human GLP1 receptor stable transgenic cell line CHO-K1/GLP-1R/CRE-luc was taken from the liquid nitrogen tank, quickly thawed in a 37° C. water bath, resuspended with DMEM/F12 medium, centrifuged, and washed once. The cells were resuspended with the experimental buffer, namely DMEM/F12 medium containing 0.1% casein, and the experimental buffer was used to adjust the cell density. The cells were spread on spread on a 384-well plate at a density of 2500 cells/5 μL/well, and then to each well was added 2.5 μL of buffer-prepared IBMX working solution with a final concentration of IBMX of 0.5 mM, and 2.5 μL of the compound sample with gradient dilution (starting at 1000 nM, 3-fold dilution, 11 concentrations). The plate was centrifuged at 1000 rpm for 1 minute, shaken for 30 seconds to mix well, and incubated at room temperature for 30 minutes. Detection was performed using the Cisbio cAMP—Gs Dynamic kit. cAMP-d2 and Anti-cAMP-Eu^3+-Cryptate were diluted 20-fold with cAMP Lysis & Detection Buffer, respectively, and mixed well. To each well was added 5 μL diluted cAMP-d2 solution, and then added 5 μL diluted Anti-cAMP-Eu3^+-Cryptate solution. The plate was shaken for 30 seconds, and incubated at room temperature for 1 hour in the dark. The signal reading of HTRF was performed using the Biotek Synergy H1 microplate reader with an excitation wavelength of 320 nm and emission wavelengths of 620 nm and 665 nm.
The signal ratio (665 nm/620 nm*10,000) was calculated, and the signal ratio and sample concentration were nonlinearly fitted using a four-parameter equation in GraphPad Prism 6 to obtain the EC50 value.

Data set [1] can be described thus: Pharmacokinetic assay of SD rats. Type of data set: in vivo. The note with it: Sprague-Dawley, rat, po; male SD rats, plasma, dose 50 mg/kg (b1219 prints 5 mg/kg). How it is done: SD rats were used as test animals. The pharmacokinetic behavior of the following example compounds was studied in the plasma of rats administered orally at a dose of 50 mg/kg.
Vehicle formula: 0.5% CMC-Na (1% Tween 80);
Three SD rats per group, male. […]
Before and after administration, 0.2 mL of blood was collected from the jugular vein at 0, 0.25, 0.5, 1, 2, 4, 6, 8 and 24 hours, placed in EDTA-K2 tubes, centrifuged at 6000 rpm at 4° C. for 6 min to separate the plasma. The plasma samples were stored at −80° C. The […] was fed 4 hours after the administration.
• 1) 160 μL of acetonitrile was added to 40 μL of the plasma sample for precipitation, and then the mixture was centrifuged at 3500×g for 5-20 min. • 2) After the above process, 100 μL of the supernatant was taken to analyze the concentration of the test compound by LC/MS/MS.
• Liquid chromatography condition: Shimadzu LC-20AD pump Mass spectrometry condition: AB Sciex API 4000 mass spectrometer Chromatographic column: phenomenex Gemiu 5 μm C18 50×4.6 mm • Mobile phase: Eluent A was 0.1% formic acid in water, and Eluent B was methanol • Flow rate: 1.0 mL/min • Elution time: 0-4.0 minutes, the eluent is as follows:
The main pharmacokinetic parameters were calculated using WinNonlin 8.2.

The test system of data set [2] is GLP-1R humanized C57BL/6 mice fed with high-fat diet. As to the kind of experiment: Long-term administration: body weight and ingestion of GLP-1R humanized mice fed with high-fat diet. Type of data set: in vivo. The note with it: HFD mice; for Weight (g)-D0 Mean: Day 0 (day of first administration, baseline), 10 mg/kg oral once a day; for Body weight change(%)-D10 Mean: Day 10 versus Day 0, 10 mg/kg oral once a day. The text has this:
The purpose of this test is to evaluate the effects of long-term administration of the compound on the body weight and ingestion of GLP-1R humanized C57BL/6 mice fed with high-fat diet.
C57BL/6_hGLP-1R, male, 5-8 weeks; 60% high-fat diet (HFD); Ultra-clean workbench; Electronic balance.
3.1 On the day of feeding with high-fat diet, C57BL/6 mice were randomly divided into two groups according to their weight. The first group was Blank, with 7 mice fed with normal control diet, while the remaining animals were in the modeling group, fed with high-fat diet, and continued until the end of the experiment.
3.2 At the 8th week of HFD feeding, the modeling group animals were randomly divided with 7 animals per group according to their weight. The first group was the Vehicle group (Vehicle: 0.5% CMC Na+1% Tween 80), which was given vehicle; The remaining group was the administration group; Administration regimen: Oral administration of the corresponding compound, administration cycle was 14 days, once a day for 14 days, with an administration dose of 10 mg/kg and an administration volume of 10 mL/kg. The Blank group continued to be fed with normal diet without any administration operation.
3.3 The day of administration was defined as Day 0.
3.4 During each administration, animals were weighed and data was recorded. Oral administration is performed according to body weight, with an administration volume of 10 mL/kg.
3.5 Starting from Day 0 of the experiment, the food intake of each group of mice was measured once every three days. Specifically, the feed was changed after each weighing and administration, and the added and remaining amounts were recorded.
3.6 On the end day of Day 14, all mice were euthanized sequentially according to grouping order, and the livers were dissected and weighed.
The weight and weight change rate of mice after administration were summarize and statistically analyzed. Weight change rate calculation: (BWt−BW0)/BW0×100%. BWt represents the weight of the mice on Day t of the experiment, and BW0 represents the weight of the mice on Day 0 of the experiment.
Calculation of food intake: (added amount (g)−remaining amount (g))/number of animals per cage, cumulative food intake is the sum of daily food intake of each animal during the administration period.
Experimental data were analyzed using GraphPad Prism software. The t-test method was used for comparison between the two groups. The one-way ANOVA method was used for comparisons between three or more groups.

Consider `O=C(O)c1ccc2nc(CN3CCC(c4cccc5c4OC(c4ccc(Cl)cc4F)C=C5F)CC3)n(C[C@@H]3CCO3)c2c1` (stereo partly drawn) [Example 1, 2-((4-(2-(4-Chloro-2-fluorophenyl)-4-fluoro-2H-chromen-8-yl)piperidin-1-yl)methyl)-1-(((S)-oxetan-2-yl)methyl)-1H-benzo[d]imidazole-6-carboxylic acid], for which, on human GLP-1 receptor, the EC50 was 0.13 nM.
Consider `O=C(O)c1ccc2nc(CN3CCC(c4cccc5c4O[C@@H](c4ccc(Cl)cc4F)C=C5F)CC3)n(C[C@@H]3CCO3)c2n1` [Example 2-A, 2-((4-((R)-2-(4-chloro-2-fluorophenyl)-4-fluoro-2H-chroman-8-yl)piperidin-1-yl)methyl)-3-(((S)-oxetan-2-yl)methyl)-3H-imidazolo[4,5-b]pyridine-5-carboxylic acid], for which the EC50 on human GLP-1 receptor was 0.07 nM. Also, in data set [1], the total exposure AUC(0-inf) stood at 35800 ng·h/mL, the AUC(0-t) came to 35800 ng·h/mL, the Cmax is 7160 ng/mL and the Tmax was found to be 2 h. For the same compound, in data set [1], the half-life is 186 min.
For `O=C(O)c1ccc2nc(CN3CCC(c4cccc5c4OC(c4ccc(Cl)cc4F)C=C5F)CC3)n(CC3(CF)CC3)c2c1` (stereo not drawn) [Example 3, 2-((4-(2-(4-Chloro-2-fluorophenyl)-4-fluoro-2H-chromen-8-yl)piperidin-1-yl)methyl)-1-((1-(fluoromethyl)cyclopropyl)methyl)-1H-benzo[d]imidazole-6-carboxylic acid], the EC50 at human GLP-1 receptor is 0.06 nM.
As for `[2H]C([2H])([2H])Oc1cc(Cl)ccc1[C@H]1C=C(F)c2cccc(C3CCN(Cc4nc5ccc(C(=O)O)nc5n4C[C@@H]4CCO4)CC3)c2O1` [Example 23-A, 2-((4-((R)-2-(4-chloro-2-(methoxy-d3)phenyl)-4-fluoro-2H-chromen-8-yl)piperidin-1-yl)methyl)-3-(((S)-oxetan-2-yl)methyl)-3H-imidazolo[4,5-b]pyridine-5-carboxylic acid], the EC50 on human GLP-1 receptor was found to be 0.07 nM.
Same read-out and setting: the result for `[2H]C([2H])([2H])Oc1cc(Cl)ccc1[C@H]1C=C(F)c2cccc(C3CCN(Cc4nc5ccc(C(=O)O)cc5n4C[C@@H]4CCO4)CC3)c2O1` [Example 24-A, 2-((4-((R)-2-(4-chloro-2-(methoxy-d3)phenyl)-4-fluoro-2H-chromen-8-yl)piperidin-1-yl)methyl)-1-(((S)-oxetan-2-yl)methyl)-1H-benzo[d]imidazole-6-carboxylic acid] reads 0.05 nM.
In the case of `[2H][C@]1(c2ccc(Cl)cc2F)C=C(F)c2cccc(C3CCN(Cc4nc5ccc(C(=O)O)nc5n4C[C@@H]4CCO4)CC3)c2O1` [Example 40, 2-((4-((R)-2-(4-Chloro-2-fluorophenyl)-4-fluoro-2H-chromen-8-yl-2-d)piperidin-1-yl)methyl)-3-(((S)-oxetan-2-yl)methyl)-3H-imidazolo[4,5-b]pyridine-5-carboxylic acid], the EC50 at human GLP-1 receptor is 0.1 nM. Also, in data set [2] (the 3rd table), the “Weight (g)-D0 Mean” value came to 28.40 g and the “Body weight change(%)-D10 Mean” value is reported as −8.49%. Moreover, the “Weight (g)-D10 Mean” value in data set [2] (Day 10, 10 mg/kg oral once a day, the 3rd table) is reported as 26.01 g. For the same compound, in data set [1], the AUC(0-inf) stood at 10800 ng·h/mL, the exposure AUC(0-t) came out at 10300 ng·h/mL, the highest level (Cmax) was 2300 ng/mL and the time of peak concentration (Tmax) turned out to be 1 h. Moreover, in data set [1], the half-life is 120 min.
As for `[2H][C@]1(c2ccc(Cl)cc2F)C=Cc2cccc(C3CCN(Cc4nc5ccc(C(=O)O)cc5n4C[C@@H]4CCO4)CC3)c2O1` [Example 47], the EC50 at human GLP-1 receptor came to 0.08 nM.
Turning to `[2H]C([2H])([2H])Oc1cc(Cl)ccc1[C@@]1([2H])C=C(F)c2cccc(C3CCN(Cc4nc5ccc(C(=O)O)cc5n4C[C@@H]4CCO4)CC3)c2O1` [Example 49, 2-((4-((R)-2-(4-Chloro-2-(methoxy-d3)phenyl)-4-fluoro-2H-chromen-8-yl-2-d)piperidin-1-yl)methyl)-1-(((S)-oxetan-2-yl)methyl)-1H-benzo[d]imidazole-6-carboxylic acid], at human GLP-1 receptor, the concentration for a half-maximal effect (EC50) is 0.08 nM.
As for `N#Cc1ccc([C@H]2C=Cc3cccc(C4CCN(Cc5nc6ccc(C(=O)O)cc6n5C[C@@H]5CCO5)CC4)c3O2)c(F)c1` [Example 52, 2-((4-((R)-2-(4-Cyano-2-fluorophenyl)-2H-chromen-8-yl)piperidin-1-yl)methyl)-1-(((S)-oxetan-2-yl)methyl)-1H-benzo[d]imidazole-6-carboxylic acid], on human GLP-1 receptor, the EC50 was 0.05 nM. Also, in data set [1], the AUC(0-inf) turned out to be 12600 ng·h/mL, the exposure AUC(0-t) amounted to 12600 ng·h/mL, the highest level (Cmax) was 9400 ng/mL and the Tmax is 1 h. In addition, the half-life in data set [1] was 96 min.
For the compound `O=C(O)c1ccc2nc(CN3CCC(c4cccc5c4O[C@@H](c4ccc(Cl)cc4F)C=C5)CC3)n(C[C@@H]3CCO3)c2c1` [Example 53], on human GLP-1 receptor, the EC50 was found to be 0.06 nM. Besides, in data set [2] (the 4th table), the “Weight (g)-D0 Mean” value was determined as 28.34 g and the “Body weight change(%)-D10 Mean” value was −9.53%. Besides, in data set [2] (Day 10, 10 mg/kg oral once a day, the 4th table), the “Eeight (g)-D10 Mean” value came to 25.65 g. Moreover, in data set [1], the AUC(0-inf) amounted to 21600 ng·h/mL, the AUC(0-t) worked out at 21500 ng·h/mL, the highest level (Cmax) was 7980 ng/mL and the Tmax was 0.5 h. Moreover, in data set [1], the half-life is 120 min.
